13 compounds from patent publication US11040028B2, “Penicinotam derivative, preparation method and use thereof” (OCEAN UNIVERSITY OF CHINA, priority 2017, dated 2021) can be followed below.

Molecules are shown by their SMILES. A value given as a limit tells only on which side of the number the result lay.

What all share (type): cell-based
One assay deals with BHK-21 cells. The experiment in a line: Anti-fibrosis activity test: inhibition of BHK-21 cell proliferation (CCK-8). To be noted: Mesocricetus auratus, BHK-21, 48 h, CCK-8, 48 hours after administration. In short, it runs like this: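 Proliferation of BHK-21 cells is measured by CCK-8 at 450 nm following 48 h compound exposure at several concentrations. Inhibition is expressed relative to blank control and IC50 is computed from it.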

The test system of assay [1] is human lung fibroblasts HFL1. The experiment in a line: Anti-fibrosis activity test: inhibition of proliferation of human lung fibroblasts HFL1 (CCK-8). To be noted: Homo sapiens, HFL1, 48 h, human lung fibroblasts HFL1, CCK-8, 48 hours. In short, it runs like this:
(§1)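 A CCK-8 proliferation assay was run: cells at 2×10^4 cells/mL, adherent for 24 h, then incubated 48 h at 37° C with compound dilutions. A450 was recorded 2 h after CCK-8 addition and converted to percent inhibition versus blank for IC50 determination.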

Assay [2] deals with human hepatic stellate cells LX-2. The experiment in a line: Anti-fibrosis activity test: inhibition of proliferation of human hepatic stellate cells LX-2 (CCK-8). To be noted: Homo sapiens, 48 h, human hepatic stellate cells LX-2, CCK-8, 48 hours. In a few lines:
as §1

Assay [3] deals with human fibrosarcoma cells HT-1080. Briefly: Anti-fibrosis activity test: inhibition of proliferation of human fibrosarcoma cells HT-1080 (CCK-8). The following applies: Homo sapiens, HT-1080, 48 h, human fibrosarcoma cells HT-1080, CCK-8, 48 hours. In a few lines:
as §1

The test system of assay [4] is human dermal fibroblasts CCC-ESF-1. The experiment in a line: Anti-fibrosis activity test: inhibition of proliferation of human dermal fibroblasts CCC-ESF-1 (CCK-8). To be noted: Fibroblast; human dermal fibroblasts CCC-ESF-1, CCK-8, 48 hours. In a few lines: as §1
Assay [5] deals with human embryonic lung fibroblast IMR-90. The experiment in a line: Anti-fibrosis activity test: inhibition of proliferation of human embryonic lung fibroblast IMR-90 (CCK-8). To be noted: human embryonic lung fibroblast IMR-90, CCK-8, 48 hours. In a few lines:
as §1

The subject of assay [6] is cardiac fibroblast RAT-iCell-C002. The experiment in a line: Anti-fibrosis activity test: inhibition of proliferation of cardiac fibroblast RAT-iCell-C002 (CCK-8). The following applies: Cardiac fibroblast, 48 h, cardiac fibroblast RAT-iCell-C002, CCK-8, 48 hours. In short, it runs like this: as §1
Assay [7] deals with mouse macrophages (RAW264.7). The experiment in a line: Lipopolysaccharide-induced NO secretion in macrophages (Griess). The following applies: Mus musculus, RAW264.7, 24 h, RAW264.7, LPS 1 μg/ml, a/b isomers given as first/second symbol, read-out: IC50 (μM), inhibition of lipopolysaccharide-induced NO secretion in macrophages. In a few lines: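 Absorbance at 548 nm after Griess reagent addition to culture supernatant gave NO content; inhibition rate was derived relative to blank control. Cells were mouse RAW264.7 macrophages exposed to compounds and 1 μg/ml LPS for 24 hours.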

As a reminder, the IC50 is the concentration at which inhibition is half-maximal. Turning to `C=CCOc1c2c(nc3cc(N4CCNCC4)c(F)cc13)-c1cccn1C2=O` [Compound 349b, 9-(allyloxy)-7-fluoro-6-(piperazin-1-yl)-10H-pyrrolizino[1,2-b]quinolin-10-one], the IC50 (in the assay on BHK-21 cells; in assay [1]; in assay [2]; in assay [3]; in assay [4]; in assay [5]) was 0.05 to 5 mM throughout. In addition, the values for the IC50 in assay [6] and in assay [7] were 0.05 to 5 mM and 1 to 10 µM, respectively.

For `CC(C)=CCn1c2c(c(=O)c3cc(F)c(N4CCNCC4)cc31)C(=O)n1cccc1-2` [Compound 354a, 7-Fluoro-4-(3-methylbut-2-en-1-yl)-6-(piperazin-1-yl)-9H-pyrrolizino[1,2-b]quinoline-9,10(4H)-dione], the IC50 fell in the range of 0.05 to 5 mM with BHK-21 cells; 0.05 to 5 mM in assay [1]; 5 to 20 mM in assay [2]; 0.05 to 5 mM in assay [3]; 0.05 to 5 mM in assay [4]; 0.05 to 5 mM in assay [5]. Also, the IC50 in assay [6] is < 0.05 mM; in assay [7] it was 1 to 10 µM.

As for `CC(C)=CCOc1c2c(nc3cc(N4CCNCC4)c(F)cc13)-c1cccn1C2=O` [Compound 354b, 7-fluoro-9-((3-methylbut-2-en-1-yl)oxy)-6-(piperazin-1-yl)-10H-pyrrolizino[1,2-b]quinolin-10-one], the IC50 in the assay with BHK-21 cells was 0.05 to 5 mM; in assay [1], 0.05 to 5 mM; in assay [2], 5 to 20 mM; in assay [3] it was 0.05 to 5 mM; in assay [4], 0.05 to 5 mM; in assay [5] it was 0.05 to 5 mM. The figures for the half-maximal inhibitory concentration (IC50) in assay [6] and in assay [7] were 0.05 to 5 mM and 1 to 10 µM, respectively.

Turning to `Cn1c2c(c(=O)c3cc(F)c(N4CCNCC4)cc31)C(=O)n1cccc1-2` [Compound 361a, 7-Fluoro-4-methyl-6-(piperazin-1-yl)-9H-pyrrolizino[1,2-b]quinoline-9,10(4H)-dione], the IC50 is 0.05 to 5 mM in the assay with BHK-21 cells; 0.05 to 5 mM in assay [1]; 0.05 to 5 mM in assay [2]; < 0.05 mM in assay [3]; 0.05 to 5 mM in assay [4]; 0.05 to 5 mM in assay [5]. In addition, the 50% inhibitory concentration (IC50) fell in the range of 0.05 to 5 mM in assay [6] and 1 to 10 µM in assay [7].

Consider `COc1c2c(nc3cc(N4CCNCC4)c(F)cc13)-c1cccn1C2=O` [Compound 361b, 7-fluoro-9-methoxy-6-(piperazin-1-yl)-10H-pyrrolizino[1,2-b]quinolin-10-one], for which the IC50 lay within 0.05 to 5 mM in the assay with BHK-21 cells; 0.05 to 5 mM in assay [1]; 5 to 20 mM in assay [2]; 0.05 to 5 mM in assay [3]; 0.05 to 5 mM in assay [4]; 0.05 to 5 mM in assay [5]. Further, the IC50 in assay [6] lay in the range of 0.05 to 5 mM; in assay [7], 1 to 10 µM.

For the compound `O=C1c2c([nH]c3cc(N4CCNCC4)c(Cl)cc3c2=O)-c2cccn21` [Compound 373a, 7-Chloro-6-(piperazin-1-yl)-9H-pyrrolizino[1,2-b]quinoline-9,10(4H)-dione], the IC50 (in the assay on BHK-21 cells; in assay [1]; in assay [2]; in assay [3]; in assay [4]; in assay [5]) was 0.05 to 5 mM throughout. Besides, the figures for the IC50 in assay [6] and in assay [7] were 0.05 to 5 mM and 0.1 to 1 µM, respectively.

On to `O=C1c2c(nc3cc(N4CCNCC4)c(Cl)cc3c2O)-c2cccn21` [Compound 373b, 7-chloro-9-hydroxy-6-(piperazin-1-yl)-10H-pyrrolizino[1,2-b]quinolin-10-one], for which the IC50 (in the assay on BHK-21 cells; in assay [1]; in assay [2]; in assay [3]; in assay [4]; in assay [5]) was 0.05 to 5 mM in each case. The IC50 lay within 0.05 to 5 mM in assay [6] and 1 to 10 µM in assay [7].

On to `O=C1c2c([nH]c3cc(N4CCNCC4)c(C(F)(F)F)cc3c2=O)-c2cccn21` [Compound 397a, 6-(Piperazin-1-yl)-7-(trifluoromethyl)-9H-pyrrolizino[1,2-b]quinoline-9,10(4H)-dione], for which the IC50 (in the assay on BHK-21 cells; in assay [1]; in assay [2]; in assay [3]; in assay [4]; in assay [5]) was 0.05 to 5 mM in each case. In addition, the concentration for half-maximal inhibition (IC50) in assay [6] lay within 0.05 to 5 mM; in assay [7], 0.1 to 1 µM.

For the compound `O=C1c2c(nc3cc(N4CCNCC4)c(C(F)(F)F)cc3c2O)-c2cccn21` [Compound 397b, 9-hydroxy-6-(piperazin-1-yl)-7-(trifluoromethyl)-10H-pyrrolizino[1,2-b]quinolin-10-one], the IC50 (in the assay with BHK-21 cells; in assay [1]; in assay [2]; in assay [3]; in assay [4]; in assay [5]) was 0.05 to 5 mM in each case. The IC50 in assay [6] fell in the range of 0.05 to 5 mM; in assay [7], 0.1 to 1 µM.

Turning to `O=C1c2c([nH]c3cc(N4CCNCC4)c(OC(F)(F)F)cc3c2=O)-c2cccn21` [Compound 409a, 6-(Piperazin-1-yl)-7-(trifluoromethoxy)-9H-pyrrolizino[1,2-b]quinoline-9,10(4H)-dione], the IC50 (with BHK-21 cells; in assay [1]; in assay [2]; in assay [3]; in assay [4]; in assay [5]) was 0.05 to 5 mM each time. Besides, the IC50 is 0.05 to 5 mM in assay [6] and 1 to 10 µM in assay [7].

For the compound `O=C1c2c(nc3cc(N4CCNCC4)c(OC(F)(F)F)cc3c2O)-c2cccn21` [Compound 409b, 9-hydroxy-6-(piperazin-1-yl)-7-(trifluoromethoxy)-10H-pyrrolizino[1,2-b]quinolin-10-one], the IC50 (in the assay with BHK-21 cells; in assay [1]; in assay [2]; in assay [3]; in assay [4]; in assay [5]) was 0.05 to 5 mM each time. In addition, the results for the IC50 in assay [6] and in assay [7] were 0.05 to 5 mM and 1 to 10 µM, respectively.

Regarding `N#Cc1cccc2c(=O)c3c(n(Cc4ccc(F)cc4)c12)-c1cccn1C3=O` [Compound 449a, 4-(4-Fluorobenzyl)-9,10-dioxo-4,10-dihydro-9H-pyrrolizino[1,2-b]quinoline-5-carbonitrile], the IC50 (in the assay on BHK-21 cells; in assay [1]; in assay [2]; in assay [3]; in assay [4]; in assay [5]) was 0.05 to 5 mM in each case. Further, the IC50 in assay [6] lay within 0.05 to 5 mM; in assay [7] it was 1 to 10 µM.

Take `N#Cc1cccc2c(OCc3ccc(F)cc3)c3c(nc12)-c1cccn1C3=O` [Compound 449b, 9-((4-fluorobenzyl)oxy)-10-oxo-10H-pyrrolizino[1,2-b]quinoline-5-carbonitrile]: the IC50 (in the assay on BHK-21 cells; in assay [1]; in assay [2]; in assay [3]; in assay [4]; in assay [5]) was 0.05 to 5 mM throughout. Also, the IC50 in assay [6] was 0.05 to 5 mM; in assay [7], 1 to 10 µM.
